Laboratory results reported in ChEMBL document CHEMBL4507277.

Legend:
[1] = biological target: Activin receptor type-1 (Homo sapiens) (UniProt Q04771); conditions: Compound concentration 1000.0 nM
[2] = biological target: Cyclin-dependent kinase 4 (Homo sapiens) (UniProt P11802); conditions: Compound concentration 1000.0 nM
[3] = biological target: Ephrin type-A receptor 6 (Homo sapiens) (UniProt Q9UF33); conditions: Compound concentration 1000.0 nM
[4] = biological target: Beta-adrenergic receptor kinase 1 (Homo sapiens) (UniProt P25098); conditions: Compound concentration 1000.0 nM
Beta-adrenergic receptor kinase 1 (Homo sapiens), sequence (P25098 whole entry): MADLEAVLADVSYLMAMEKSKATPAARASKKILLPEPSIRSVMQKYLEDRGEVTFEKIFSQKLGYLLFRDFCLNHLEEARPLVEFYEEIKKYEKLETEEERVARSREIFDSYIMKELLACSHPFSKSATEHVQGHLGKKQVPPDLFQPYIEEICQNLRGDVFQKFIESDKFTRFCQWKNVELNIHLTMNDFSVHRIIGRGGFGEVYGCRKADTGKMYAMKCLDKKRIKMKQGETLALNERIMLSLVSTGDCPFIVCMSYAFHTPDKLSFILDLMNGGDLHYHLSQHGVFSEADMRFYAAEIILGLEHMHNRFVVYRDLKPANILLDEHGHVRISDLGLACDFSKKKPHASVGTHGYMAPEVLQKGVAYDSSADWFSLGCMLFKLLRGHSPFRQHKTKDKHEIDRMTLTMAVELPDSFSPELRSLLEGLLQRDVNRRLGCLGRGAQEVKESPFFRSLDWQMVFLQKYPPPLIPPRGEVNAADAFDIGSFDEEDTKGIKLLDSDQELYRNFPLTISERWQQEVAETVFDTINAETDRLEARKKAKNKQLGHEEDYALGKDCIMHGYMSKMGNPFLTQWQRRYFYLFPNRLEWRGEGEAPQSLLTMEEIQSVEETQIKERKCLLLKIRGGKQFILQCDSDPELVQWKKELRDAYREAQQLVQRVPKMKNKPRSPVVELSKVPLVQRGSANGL

[5] = biological target: Tyrosine-protein kinase HCK (Homo sapiens) (UniProt P08631); conditions: Compound concentration 1000.0 nM
[6] = biological target: Homeodomain-interacting protein kinase 1 (Homo sapiens) (UniProt Q86Z02); conditions: Compound concentration 1000.0 nM
[7] = biological target: Mast/stem cell growth factor receptor Kit (Homo sapiens) (UniProt P10721); conditions: Compound concentration 1000.0 nM
[8] = biological target: Serine/threonine-protein kinase MARK1 (Homo sapiens) (UniProt Q9P0L2); conditions: Compound concentration 1000.0 nM
[9] = biological target: Myosin light chain kinase family member 4 (Homo sapiens) (UniProt Q86YV6); conditions: Compound concentration 1000.0 nM
Myosin light chain kinase family member 4 (Homo sapiens), sequence (Q86YV6 whole entry): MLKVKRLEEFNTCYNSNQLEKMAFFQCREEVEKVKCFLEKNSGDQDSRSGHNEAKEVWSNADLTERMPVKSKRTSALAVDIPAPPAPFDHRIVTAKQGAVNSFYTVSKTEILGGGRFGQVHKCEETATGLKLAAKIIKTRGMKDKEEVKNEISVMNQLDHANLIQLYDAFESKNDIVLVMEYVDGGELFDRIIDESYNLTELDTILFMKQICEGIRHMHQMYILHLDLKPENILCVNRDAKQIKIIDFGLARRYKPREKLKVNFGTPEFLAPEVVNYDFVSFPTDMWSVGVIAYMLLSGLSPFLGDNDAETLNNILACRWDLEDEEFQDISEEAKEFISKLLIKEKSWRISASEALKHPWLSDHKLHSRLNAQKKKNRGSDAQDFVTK

[10] = biological target: Myosin-IIIb (Homo sapiens) (UniProt Q8WXR4); conditions: Compound concentration 1000.0 nM
Myosin-IIIb (Homo sapiens), sequence (Q8WXR4 whole entry): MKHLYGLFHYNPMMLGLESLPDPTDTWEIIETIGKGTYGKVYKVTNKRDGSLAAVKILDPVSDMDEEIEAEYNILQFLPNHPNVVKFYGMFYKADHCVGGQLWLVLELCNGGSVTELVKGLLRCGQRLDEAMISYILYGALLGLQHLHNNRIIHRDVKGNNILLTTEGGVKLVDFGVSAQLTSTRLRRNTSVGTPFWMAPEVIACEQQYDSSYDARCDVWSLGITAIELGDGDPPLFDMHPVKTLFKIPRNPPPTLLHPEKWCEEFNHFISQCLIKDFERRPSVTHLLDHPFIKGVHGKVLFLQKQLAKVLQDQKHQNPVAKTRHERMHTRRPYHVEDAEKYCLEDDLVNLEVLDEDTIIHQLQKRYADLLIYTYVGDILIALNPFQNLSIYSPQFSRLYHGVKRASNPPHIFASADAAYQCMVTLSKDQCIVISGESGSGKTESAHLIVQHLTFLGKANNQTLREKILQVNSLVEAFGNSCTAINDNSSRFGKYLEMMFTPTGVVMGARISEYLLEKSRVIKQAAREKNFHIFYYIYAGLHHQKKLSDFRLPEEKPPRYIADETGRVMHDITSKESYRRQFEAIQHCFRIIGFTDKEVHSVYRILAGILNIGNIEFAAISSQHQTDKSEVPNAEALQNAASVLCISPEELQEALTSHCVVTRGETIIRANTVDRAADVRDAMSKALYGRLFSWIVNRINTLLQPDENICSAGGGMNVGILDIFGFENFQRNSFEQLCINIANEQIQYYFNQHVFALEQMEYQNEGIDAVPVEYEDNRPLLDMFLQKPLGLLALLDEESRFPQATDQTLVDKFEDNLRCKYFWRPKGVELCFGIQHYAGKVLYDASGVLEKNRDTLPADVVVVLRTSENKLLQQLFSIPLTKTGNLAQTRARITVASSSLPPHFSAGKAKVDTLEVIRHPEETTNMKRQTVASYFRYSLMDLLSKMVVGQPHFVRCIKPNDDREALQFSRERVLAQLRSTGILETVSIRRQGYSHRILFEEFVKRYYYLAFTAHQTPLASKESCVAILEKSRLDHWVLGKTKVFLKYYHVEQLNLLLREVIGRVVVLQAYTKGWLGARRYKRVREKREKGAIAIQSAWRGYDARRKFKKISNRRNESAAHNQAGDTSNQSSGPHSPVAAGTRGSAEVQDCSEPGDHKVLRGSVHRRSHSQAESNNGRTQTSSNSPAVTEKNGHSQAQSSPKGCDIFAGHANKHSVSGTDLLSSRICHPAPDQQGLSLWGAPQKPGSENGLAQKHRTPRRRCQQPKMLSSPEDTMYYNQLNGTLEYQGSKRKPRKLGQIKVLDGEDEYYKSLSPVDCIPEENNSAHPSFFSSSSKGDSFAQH

[11] = biological target: Serine/threonine-protein kinase 38 (Homo sapiens) (UniProt Q15208); conditions: Compound concentration 1000.0 nM
Serine/threonine-protein kinase 38 (Homo sapiens), sequence (Q15208 2-465 limits assumed): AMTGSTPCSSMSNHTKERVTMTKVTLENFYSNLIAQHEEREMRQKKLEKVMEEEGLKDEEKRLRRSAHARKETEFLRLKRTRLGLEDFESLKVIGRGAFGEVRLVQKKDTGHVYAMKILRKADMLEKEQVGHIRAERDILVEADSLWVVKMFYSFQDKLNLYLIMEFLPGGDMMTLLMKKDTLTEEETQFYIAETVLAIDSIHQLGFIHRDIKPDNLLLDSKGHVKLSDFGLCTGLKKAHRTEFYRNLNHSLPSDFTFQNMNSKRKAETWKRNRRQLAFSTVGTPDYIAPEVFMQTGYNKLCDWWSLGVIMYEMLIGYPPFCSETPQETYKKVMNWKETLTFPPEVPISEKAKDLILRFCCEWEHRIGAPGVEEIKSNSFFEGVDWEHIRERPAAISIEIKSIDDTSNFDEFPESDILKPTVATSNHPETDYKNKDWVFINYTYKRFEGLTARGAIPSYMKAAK

[12] = biological target: Cyclin-dependent kinase 18 (Homo sapiens) (UniProt Q07002); conditions: Compound concentration 1000.0 nM
[13] = biological target: Phosphorylase b kinase gamma catalytic chain, skeletal muscle/heart isoform (Homo sapiens) (UniProt Q16816); conditions: Compound concentration 1000.0 nM
[14] = test system: Phosphatidylinositol 4,5-bisphosphate 3-kinase catalytic subunit alpha isoform (Homo sapiens), P42336 [I800L]; conditions: Compound concentration 1000.0 nM
Phosphatidylinositol 4,5-bisphosphate 3-kinase catalytic subunit alpha isoform (Homo sapiens), P42336 [I800L], sequence (P42336 whole entry I800L, canonical isoform): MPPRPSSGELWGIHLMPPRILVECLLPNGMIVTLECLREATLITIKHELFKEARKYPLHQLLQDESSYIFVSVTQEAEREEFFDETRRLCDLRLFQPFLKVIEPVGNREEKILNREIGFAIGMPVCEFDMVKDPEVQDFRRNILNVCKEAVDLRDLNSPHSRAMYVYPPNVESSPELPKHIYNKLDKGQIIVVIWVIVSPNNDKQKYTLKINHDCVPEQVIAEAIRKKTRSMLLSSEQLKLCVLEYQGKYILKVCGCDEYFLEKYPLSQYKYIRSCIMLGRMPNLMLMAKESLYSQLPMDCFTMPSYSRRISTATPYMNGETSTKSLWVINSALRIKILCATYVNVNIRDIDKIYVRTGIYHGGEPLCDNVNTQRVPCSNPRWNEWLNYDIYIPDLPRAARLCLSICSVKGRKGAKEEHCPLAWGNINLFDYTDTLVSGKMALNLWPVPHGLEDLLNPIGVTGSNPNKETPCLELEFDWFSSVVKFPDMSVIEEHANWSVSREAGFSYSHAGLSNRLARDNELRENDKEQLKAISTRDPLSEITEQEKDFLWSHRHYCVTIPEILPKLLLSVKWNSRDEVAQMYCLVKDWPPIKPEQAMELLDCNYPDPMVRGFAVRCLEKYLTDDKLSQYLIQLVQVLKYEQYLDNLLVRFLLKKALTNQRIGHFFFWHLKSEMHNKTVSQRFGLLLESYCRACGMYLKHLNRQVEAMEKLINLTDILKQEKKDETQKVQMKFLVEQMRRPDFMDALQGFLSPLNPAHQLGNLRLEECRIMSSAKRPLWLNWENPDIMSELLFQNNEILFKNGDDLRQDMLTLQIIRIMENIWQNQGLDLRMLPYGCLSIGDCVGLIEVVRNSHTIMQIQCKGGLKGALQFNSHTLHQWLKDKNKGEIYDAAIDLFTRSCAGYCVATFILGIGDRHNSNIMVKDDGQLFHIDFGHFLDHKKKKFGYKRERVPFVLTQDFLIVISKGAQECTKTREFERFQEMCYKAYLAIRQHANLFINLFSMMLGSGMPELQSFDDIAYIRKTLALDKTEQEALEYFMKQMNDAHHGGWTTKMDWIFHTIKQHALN

[15] = biological target: Phosphatidylinositol 4-kinase beta (Homo sapiens) (UniProt Q9UBF8); conditions: Compound concentration 1000.0 nM
[16] = biological target: Serine/threonine-protein kinase pim-2 (Homo sapiens) (UniProt Q9P1W9); conditions: Compound concentration 1000.0 nM
[17] = biological target: Serine/threonine-protein kinase N2 (Homo sapiens) (UniProt Q16513); conditions: Compound concentration 1000.0 nM
Serine/threonine-protein kinase N2 (Homo sapiens), sequence (Q16513 whole entry, looked up): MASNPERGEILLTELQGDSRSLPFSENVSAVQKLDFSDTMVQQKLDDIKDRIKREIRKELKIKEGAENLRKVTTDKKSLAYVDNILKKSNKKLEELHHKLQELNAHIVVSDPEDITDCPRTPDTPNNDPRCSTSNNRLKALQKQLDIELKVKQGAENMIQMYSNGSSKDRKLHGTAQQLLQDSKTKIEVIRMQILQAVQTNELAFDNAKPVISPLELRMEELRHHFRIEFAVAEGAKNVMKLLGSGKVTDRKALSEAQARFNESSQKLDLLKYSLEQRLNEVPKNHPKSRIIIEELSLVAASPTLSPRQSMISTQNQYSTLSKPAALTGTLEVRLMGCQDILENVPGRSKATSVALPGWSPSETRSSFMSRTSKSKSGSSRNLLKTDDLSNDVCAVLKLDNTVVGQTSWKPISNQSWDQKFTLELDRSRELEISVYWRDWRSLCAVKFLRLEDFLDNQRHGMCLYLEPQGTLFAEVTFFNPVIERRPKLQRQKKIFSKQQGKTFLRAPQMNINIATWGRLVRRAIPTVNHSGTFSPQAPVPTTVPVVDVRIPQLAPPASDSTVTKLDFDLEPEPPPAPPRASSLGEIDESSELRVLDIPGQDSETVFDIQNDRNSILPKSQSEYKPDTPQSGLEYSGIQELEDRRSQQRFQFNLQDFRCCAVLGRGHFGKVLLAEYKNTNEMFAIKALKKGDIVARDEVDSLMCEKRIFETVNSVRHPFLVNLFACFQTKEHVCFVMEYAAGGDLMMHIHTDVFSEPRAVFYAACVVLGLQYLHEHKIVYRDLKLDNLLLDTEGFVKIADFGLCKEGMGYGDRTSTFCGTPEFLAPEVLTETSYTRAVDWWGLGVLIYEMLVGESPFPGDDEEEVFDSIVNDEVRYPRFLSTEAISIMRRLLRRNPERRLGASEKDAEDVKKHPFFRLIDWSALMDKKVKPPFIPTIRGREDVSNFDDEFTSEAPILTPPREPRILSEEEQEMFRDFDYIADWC

[18] = biological target: Serine/threonine-protein kinase TAO3 (Homo sapiens) (UniProt Q9H2K8); conditions: Compound concentration 1000.0 nM
[19] = biological target: 5-hydroxytryptamine receptor 2C (Homo sapiens) (UniProt P28335); conditions: Compound concentration 10.0 uM
[20] = biological target: Alpha-1A adrenergic receptor (Homo sapiens) (UniProt P35348); conditions: Compound concentration 10.0 uM
[21] = biological target: Alpha-2C adrenergic receptor (Homo sapiens) (UniProt P18825); conditions: Compound concentration 10.0 uM
[22] = biological target: Sigma intracellular receptor 2 (Homo sapiens) (UniProt Q5BJF2); conditions: Compound concentration 10.0 uM
[23] = biological target: Polyunsaturated fatty acid lipoxygenase ALOX15 (Oryctolagus cuniculus) (UniProt P12530); conditions: Compound concentration 10.0 uM
[24] = biological target: Serotonin 1 (5-HT1) receptor (Rattus norvegicus) (UniProt P28564+P30940+P19327+P28565); conditions: Compound concentration 10.0 uM
[25] = biological target: Serotonin 2 (5-HT2) receptor (Rattus norvegicus) (UniProt P30994+P08909+P14842); conditions: Compound concentration 10.0 uM
[26] = biological target: Adenosine receptor A1 (Homo sapiens) (UniProt P30542); conditions: Compound concentration 10.0 uM
[27] = biological target: Adrenergic receptor alpha-1 (Rattus norvegicus) (UniProt P15823+P23944+P43140); conditions: Compound concentration 10.0 uM
[28] = biological target: Angiotensin-converting enzyme (Oryctolagus cuniculus) (UniProt P12822); conditions: Compound concentration 10.0 uM
[29] = biological target: Beta-1 adrenergic receptor (Homo sapiens) (UniProt P08588); conditions: Compound concentration 10.0 uM
[30] = biological target: Voltage-dependent N-type calcium channel subunit alpha-1B (Rattus norvegicus) (UniProt Q02294); conditions: Compound concentration 10.0 uM
[31] = biological target: D(1A) dopamine receptor (Homo sapiens) (UniProt P21728); conditions: Compound concentration 10.0 uM
[32] = biological target: D(2) dopamine receptor (Homo sapiens) (UniProt P14416); conditions: Compound concentration 10.0 uM
[33] = biological target: Histamine H1 receptor (Homo sapiens) (UniProt P35367); conditions: Compound concentration 10.0 uM
[34] = biological target: Potassium voltage-gated channel subfamily A member 1 (Rattus norvegicus) (UniProt P10499); conditions: Compound concentration 10.0 uM
[35] = biological target: ATP-sensitive inward rectifier potassium channel 1 isoform X1 (Mesocricetus auratus) (UniProt A0A1U8CU73); conditions: Compound concentration 10.0 uM
[36] = biological target: Muscarinic acetylcholine receptor (Rattus norvegicus) (UniProt P08482+P08483+P08485+P08911+P10980); conditions: Compound concentration 10.0 uM
[37] = biological target: Acetylcholine receptor subunit alpha (Homo sapiens) (UniProt P02708); conditions: Compound concentration 10.0 uM
[38] = biological target: Sodium-dependent noradrenaline transporter (Homo sapiens) (UniProt P23975); conditions: Compound concentration 10.0 uM
[39] = biological target: Opioid receptor (Rattus norvegicus) (UniProt P33533+P34975+P33535); conditions: Compound concentration 10.0 uM
[40] = biological target: 3',5'-cyclic-AMP phosphodiesterase 4A (Homo sapiens) (UniProt P27815); conditions: Compound concentration 10.0 uM
[41] = biological target: Cathepsin G (Homo sapiens) (UniProt P08311); conditions: Compound concentration 10.0 uM
[42] = biological target: Interstitial collagenase (Homo sapiens) (UniProt P03956); conditions: Compound concentration 10.0 uM
[43] = biological target: Sigma receptor (Homo sapiens) (UniProt Q99720+Q5BJF2); conditions: Cavia porcellus; Compound concentration 10.0 uM
[44] = biological target: D(2) dopamine receptor (Homo sapiens) (UniProt P14416); conditions: Compound concentration 10.0 uM; remark: listed apart in the source

CCS(=O)(=O)c1cc2cc(C[C@](O)(CC(C)(C)c3ccc(F)cc3C(N)=O)C(F)(F)F)[nH]c2cn1
inactive: residual activity [1] 100% | residual activity [2] 97% | residual activity [3] 100% | residual activity [4] 84% | residual activity [5] 100% | residual activity [6] 94% | residual activity [7] 89% | residual activity [8] 100% | residual activity [9] 100% | residual activity [10] 100% | residual activity [11] 91% | residual activity [12] 100% | residual activity [13] 66% | residual activity [14] 73% | residual activity [15] 100% | residual activity [16] 100% | residual activity [17] 100% | residual activity [18] 86% | inhibition [19] 0.64% | inhibition [20] -0.31% | inhibition [21] -1.88% | inhibition [22] 9.04% | residual activity [23] 89% | residual activity [24] 118% | residual activity [25] 94% | residual activity [26] 107% | residual activity [27] 89% | residual activity [28] 109% | residual activity [29] 90% | residual activity [30] 96% | residual activity [31] 92% | residual activity [32] 90% | residual activity [33] 100% | residual activity [34] 87% | residual activity [35] 104% | residual activity [36] 103% | residual activity [37] 101% | residual activity [38] 102% | residual activity [39] 95% | residual activity [40] 81% | residual activity [41] 104% | residual activity [42] 94% | residual activity [43] 86%

CCS(=O)(=O)c1cc2cc(C[C@@](O)(CC(C)(C)c3ccc(F)cc3C(N)=O)C(F)(F)F)[nH]c2cn1
inactive: residual activity [1] 100% | residual activity [2] 100% | residual activity [3] 100% | residual activity [4] 50% | residual activity [5] 100% | residual activity [6] 90% | residual activity [7] 100% | residual activity [8] 100% | residual activity [9] 100% | residual activity [10] 79% | residual activity [11] 76% | residual activity [12] 100% | residual activity [13] 67% | residual activity [14] 70% | residual activity [15] 100% | residual activity [16] 99% | residual activity [17] 85% | residual activity [18] 78% | inhibition [19] 7.33% | inhibition [44] -8.41% | inhibition [21] 5.83%
